Test results from PubChem BioAssay (NCI).
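Method: 48-hour compound exposure of cells in 96-well plates, five concentrations, linear interpolation of endpoints. GI50 = concentration required for 50% inhibition of growth. TGI: concentration producing complete growth inhibition.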

Legend:
Test in all cases: NCI tumour cell line growth inhibition, 48 h
[1] = system: HCC-2998 colon
[2] = system: SW-620 colon
[3] = system: K-562 leukemia
[4] = system: IGROV1 ovarian
[5] = system: COLO 205 colon
[6] = system: TK-10 renal
[7] = system: SF-295 CNS
[8] = system: NCI/ADR-RES ovarian
[9] = system: T-47D breast
[10] = system: HS 578T breast

| Structure (SMILES) | TGI [1] [µM] | TGI [2] [µM] | TGI [3] [µM] | TGI [4] [µM] | TGI [5] [µM] | TGI [6] [µM] | TGI [7] [µM] | GI50 [8] [µM] | TGI [8] [µM] | GI50 [1] [µM] | GI50 [2] [µM] | GI50 [9] [µM] | TGI [9] [µM] | GI50 [3] [µM] | GI50 [4] [µM] | GI50 [5] [µM] | GI50 [6] [µM] | GI50 [7] [µM] | GI50 [10] [µM] | TGI [10] [µM] |
| --- | --- | --- | --- | --- | --- | --- | --- | --- | --- | --- | --- | --- | --- | --- | --- | --- | --- | --- | --- | --- |
| CCOC(=O)C1(Cc2ccc3ccccc3c2)CCCCCN1 (stereo not drawn) | 57.3 | 64.9 | 68.7 | > 100 | 34.4 | > 100 | 39 | – | – | – | – | – | – | – | – | – | – | – | – | – |
| Cc1cccc(N=C2NC(=O)C(CC(=O)Nc3ccc(Cl)cc3C)S2)c1 (stereo not drawn) | > 100 | > 100 | > 100 | > 100 | > 100 | > 100 | > 100 | – | – | – | – | – | – | – | – | – | – | – | – | – |
| CC12C(=O)N(CCN)C(=O)C1C1c3ccccc3C2c2ccccc21 (stereo not drawn) | > 100 | > 100 | > 100 | > 100 | > 100 | > 100 | > 100 | – | – | – | – | – | – | – | – | – | – | – | – | – |
| CS[C@@]1(C(=O)Nc2ccc3[nH]nc(-c4ccc(OC(C)C)nc4)c3c2)CCN(CC(=O)N2CC=C(c3ccc(-c4ncn(C)n4)cc3)CC2)C1 | > 100 | > 100 | > 100 | > 100 | > 100 | > 100 | > 100 | 12.6 | > 100 | 0.131 | 0.201 | 27.9 | > 100 | 2.24 | 0.271 | 0.0178 | 0.237 | > 27.3 | – | – |
| CCOC(=O)N1CCC(=O)C[C@@H]1C/C=C/P1(=O)O[C@H](c2ccccc2)C(C)N1C(C)C (stereo partly drawn) | > 100 | > 100 | > 100 | > 100 | – | > 100 | > 100 | – | – | – | – | – | – | – | – | – | – | – | – | – |
| O=C(/C=C/c1ccc(Cl)c(Cl)c1)C1CCC(Cl)CC1 (stereo not drawn) | 32.8 | 31.7 | – | 33.9 | 50.3 | 90.3 | 35.8 | – | – | – | – | – | – | – | – | – | – | – | – | – |
| Nn1c(N=Nc2c(O)[nH]c3ccccc23)n[nH]c1=S | > 100 | > 100 | > 100 | > 100 | > 100 | > 100 | > 100 | – | – | – | – | – | – | – | – | – | – | – | – | – |
| CON | > 100 | > 100 | – | > 100 | > 100 | > 100 | > 100 | > 100 | > 100 | > 100 | > 100 | > 100 | > 100 | – | > 100 | > 100 | > 100 | > 100 | > 100 | > 100 |
| COC(=O)C1=Cc2c(OC)cc(OC)c(OC)c2[C@H](c2cc(OC)c(OC)cc2OC)C1C(=O)OC (stereo partly drawn) | > 100 | > 100 | 46.9 | > 100 | > 100 | > 100 | > 100 | – | – | – | – | – | – | – | – | – | – | – | – | – |
| CCC[CH2][Sn]1([CH2]CCC)[O]C(=O)c2cc(C)ccc2[O]1 | 1.98 | 0.574 | 1.16 | 2.21 | 1.5 | 1.18 | 1.99 | – | – | 0.67 | 0.211 | – | – | 0.222 | 0.924 | 0.46 | 0.385 | 0.628 | – | – |
| C[C@]12CCCC(=O)C1C[C@H](C(=O)O)CC2 (stereo partly drawn) | > 100 | > 100 | > 100 | > 100 | > 100 | > 100 | > 100 | – | – | – | – | – | – | – | – | – | – | – | – | – |
| CN(C)CCOc1nc2ccccc2c2c1-c1ccc(Cl)cc1C2=O | 2.49 | 1.53 | – | 1.73 | 1.72 | 3.18 | > 100 | 0.696 | 4.4 | 0.97 | 0.34 | 1.53 | 4.55 | – | 0.444 | 0.443 | 1.36 | 1.53 | 0.728 | 3.59 |
| Cc1sc(/N=C2/NC(=O)CS2)nc1-c1nc(/N=C2/NC(=O)CS2)sc1C | – | > 50 | > 50 | > 50 | > 50 | > 50 | > 50 | 21.2 | > 50 | – | > 50 | – | – | 26.8 | > 50 | > 50 | > 50 | > 50 | 2.17 | 36.3 |
| CCN(CC)c1ccc2nc3c4ccccc4c(=NC(=O)c4ccccc4-c4c5ccc(N(CC)CC)cc5[o+]c5cc(N(CC)CC)ccc45)cc-3oc2c1 | 3.82 | > 22.5 | > 100 | 7.49 | 3.83 | 31.5 | 14.2 | 2.19 | 10.6 | 1.62 | 2.54 | 5.25 | 17.3 | – | 2.41 | 1.59 | 10.3 | 2.96 | – | – |
| CCOC(=O)CNC(=O)C(CSC(=O)N(C)O)NC(=O)CCC(N)C(=O)O (stereo not drawn) | – | > 2000 | > 2000 | > 2000 | – | > 2000 | – | – | – | – | > 2000 | – | – | > 2000 | > 2000 | > 2000 | > 2000 | – | – | – |
| CP(C)C.[Ag][I] | > 100 | > 100 | > 100 | > 100 | > 100 | > 100 | > 100 | – | – | – | – | – | – | – | – | – | – | – | – | – |
| CCOC(=O)C(Cc1ccc(OC)cc1)C(=O)OCC | 12.4 | – | 11.8 | 14.3 | 19.7 | 26.2 | 20.3 | 3.77 | 19 | 4.81 | – | 2.8 | 12.4 | 1.83 | 3.46 | 7.23 | 8.22 | 5 | – | – |
| O=C1CCC(=O)C(C(=O)CCC(=O)Nc2cccc(Cl)c2)C1 (stereo not drawn) | > 100 | > 100 | > 100 | > 100 | > 100 | > 100 | > 100 | – | – | – | – | – | – | – | – | – | – | – | – | – |
| CCOC(=O)C1CC/C(=C(/C#N)C(=O)OC)N1 (stereo not drawn) | > 100 | > 100 | > 100 | > 100 | > 100 | > 100 | > 100 | – | – | – | – | – | – | – | – | – | – | – | – | – |
| NC(=O)CCC(NC(=O)C(F)(F)F)C(=O)O (stereo not drawn) | > 100 | > 100 | > 100 | > 100 | > 100 | > 100 | > 100 | – | – | – | – | – | – | – | – | – | – | – | – | – |
